Test results from patent publication US6451971B1, “Physiologically active peptides” (Hisamitsu Pharmaceutical Co., Ltd., priority 1999, dated 2002).
Entries after “also recorded” stand apart in the source; their conditions may differ. Where no end group is shown, it is not given here.

What was measured:
[1] = Saiki et al., Jpn. J. Cancer Res., 84, 558, 1993; cited from earlier work
[2] = system: melanoma cells; conditions: Humphries, Science 233, 467, 1986; cited from earlier work
[3] = Saiki et al., Jpn. J. Cancer Res., 84, 558, 1993; cited from earlier work; remark: listed apart in the source
[4] = system: K562 cell line derived from human chronic myelocytic leukemia; experiment: Cell adhesion inhibitory activity on Mn2+-treated anchorage-independent K562 cells on fibronectin-coated plates; type: cell-based; conditions: for cell adhesion inhibitory activity (alanine scanning): K562 cells, biotinylated peptides of Table 1, conducted similarly to Example 2, FIG. 6
Source text: (§1) (Danen et al., J. Biol. Chem., 270, 37, 21612, 1995; Mould et al., J. Biol. Chem., 270, 44, 26270, 1995.) This allows the cells to acquire adhesiveness to the extracellular matrices mediated by integrins. Such experimental induction of adhesion can be utilized as models for cell adhesion in the processes of metastatis of cancer cells and infiltration of inflammatory cells into tissues.
(§2) The K562 cell line derived from human chronic myelocytic leukemia, U937 cell line derived from human hystiocytic lymphoma and Ramos cell line derived from human Burkitt's lymphoma (all available from American Type Tissue Culture Collection-ATCC), which are one kind of anchorage-independent cells, were then treated with Mn^2+ to prepare a system, where the cell adhesion inhibitory activity of the peptides was evaluated.
Ninety six well plates were coated with fibronectin, which is one kind of extracellular matrix: fibronectin (FN) was prepared by the method of Fukai et al., J. Biol. Chem., 266, 8807, 1991. After cells were suspended to a cell density of 2×10^5/ml in a HEPES buffered physiological saline containing 0.1 mM Mn^2+, the cells (100 μl) were added to the plate and incubated at 37° C. under 5% CO2 for 60 min. Concurrently with addition of the cell suspension, the biotinylated peptide as synthesized in Example 1 (the amino acid sequence of the peptide portion is set forth in SEQ ID NO: 2) was added to the plate to give a final concentration of from 50 to 200 μg/ml. […] As a negative control, the group to which only biotin (unbound with the peptide) had been added was also evaluated.
FN coating was carried out by adding to each well, FN phosphate buffer (100 μl) that had been prepared to 10 μg/ml, by conducting incubation at 37° C. under 5% CO2 for 60 min and then by washing the well with phosphate buffer 3 times. After cells in each well were fixed with 5% formaldehyde (Wako Pure Chemical Industries, Ltd.), unbound cells were removed and five areas were randomly selected in each well to count the cells under a microscope.
The alanine scanning method is a technique that is used to identify amino acid sequence regions essential to physiological activities of proteins and peptides. (Puffer et al., J. Virol., 71, 6541, 1997; Wu and Hersh, J. Biol. Chem., 270, 49, 29111, 1995.) This method was then employed to analyze the present peptides. The peptides listed in Table 1, all of which were biotinylated (Example 1), were used in the experiments. For evaluation, the K562 cells derived from human chronic myelocytic leukemia, which was one kind of anchorage-independent cell, were used.
Evaluation of the cell adhesion inhibitory activity was conducted similarly to Example 2.

[5] = system: U937 cell line derived from human hystiocytic lymphoma; experiment: Cell adhesion inhibitory activity on Mn2+-treated anchorage-independent U937 cells on fibronectin-coated plates; type: cell-based; conditions: U937 cells in 0.1 mM Mn2+, biotinylated peptide 50 to 200 μg/ml, 60 min, adherent cells counted
Source text: as §1, §2
(§3) Ninety six well plates were coated with fibronectin, which is one kind of extracellular matrix: fibronectin (FN) was prepared by the method of Fukai et al., J. Biol. Chem., 266, 8807, 1991. After cells were suspended to a cell density of 2×10^5/ml in a HEPES buffered physiological saline containing 0.1 mM Mn^2+, the cells (100 μl) were added to the plate and incubated at 37° C. under 5% CO2 for 60 min. […] As a negative control, the group to which only biotin (unbound with the peptide) had been added was also evaluated. […]

[6] = system: Ramos cell line derived from human Burkitt's lymphoma; experiment: Cell adhesion inhibitory activity on Mn2+-treated anchorage-independent Ramos cells on fibronectin-coated plates; type: cell-based; conditions: Ramos cells in 0.1 mM Mn2+, biotinylated peptide 50 to 200 μg/ml, 60 min, adherent cells counted
Source text: as §1, §2, §3

[7] = system: human melanoma A375SM cells; experiment: Cell adhesion (spreading) inhibitory activity on anchorage-dependent A375SM cells; type: cell-based; conditions: fibronectin- or vitronectin-coated plates, biotinylated peptide 50 to 200 μg/ml, 60 min
Description: (§4) The human melanoma A375SM cells and human fibrosarcoma HT1080 (both available from ATCC), which are anchorage-dependent cells, were used in the evaluation. Cell adhesion inhibitory activity was evaluated according to the method of Fukai et al. as described in Biochem. Biophys. Res. Commun., 220, 394-398, 1996. The number of spread cells was counted as an index of the cell adhesion inhibitory activity.
(§5) A375SM cells or HT1080 cells were prepared to 2×10^5/ml in Dulbecco's Modified Eagle Medium (DMEM: GIBCO BRL) containing 0.1% Ovalbumin (Wako Pure Chemical Industries, Ltd.). This cell suspension (100 μl) was added to 96-well plates that had been coated with fibronectin or vitronectin (VN), which are one kind of extracellular matrix, and incubated at 37° C. under 5% CO2 for 60 min. Concurrently with addition of the cell suspension, the biotinylated peptide as synthesized in Example 1 was added to the plates to give a final concentration of from 50 to 200 μg/ml. […] FN and VN coatings were carried out by adding to each well, FN or VN phosphate buffered saline (100 μl) that had been prepared to 0.5 μg/ml, by conducting incubation at 37° C. under 5% CO2 for 60 min and then by washing the well with phosphate buffered saline 3 times. […]

[8] = system: human fibrosarcoma HT1080; experiment: Cell adhesion (spreading) inhibitory activity on anchorage-dependent HT1080 cells; type: cell-based; conditions: fibronectin- or vitronectin-coated plates, biotinylated peptide 50 to 200 μg/ml, 60 min
Description: as §4, §5

Substance: GRGDS [GRGDS peptide]
- decomposition by enzyme [1]: liable to be decomposed by enzyme
- inhibition of experimental metastasis of melanoma cells to the lung [2]: inhibits the experimental metastasis of melanoma cells to the lung
- rate of clearance from the circulation following administration [3]: fast

Substance: Gly Leu Lys Pro Gly Val Asp Ala Thr Ile Thr Val Tyr Ala Val (GLKPGVDATITVYAV; also: biotinylated (place not given here)) [SEQ ID NO: 3]
- cell adhesion inhibitory activity (alanine scanning) [4]: equal to or greater than the cell adhesion inhibitory activity of the peptide set forth in SEQ ID NO: 2; also recorded: much greater cell adhesion inhibitory activity compared to the peptide set forth in SEQ ID NO: 2
- cell adhesion inhibitory activity (alanine scanning) ([4]; listed as SEQ NO: 3): stronger cell adhesion inhibitory activity than did SEQ NO: 2

Substance: Gly Leu Lys Pro Gly Val Asp Tyr Ala Ile Thr Val Tyr Ala Val (GLKPGVDYAITVYAV; also: biotinylated (place not given here)) [SEQ ID NO: 4]
- cell adhesion inhibitory activity (alanine scanning) [4]: cell adhesion inhibitory activity was lost

Substance: Gly Leu Lys Pro Gly Val Asp Tyr Thr Ala Thr Val Tyr Ala Val (GLKPGVDYTATVYAV; also: biotinylated (place not given here)) [SEQ ID NO: 5]
- cell adhesion inhibitory activity (alanine scanning) [4]: cell adhesion inhibitory activity was lost

Substance: Gly Leu Lys Pro Gly Val Asp Tyr Thr Ile Ala Val Tyr Ala Val (GLKPGVDYTIAVYAV; also: biotinylated (place not given here)) [SEQ ID NO: 6]
- cell adhesion inhibitory activity (alanine scanning) [4]: cell adhesion inhibitory activity was lost

Substance: Gly Leu Lys Pro Gly Val Asp Tyr Thr Ile Thr Ala Tyr Ala Val (GLKPGVDYTITAYAV; also: biotinylated (place not given here)) [SEQ ID NO: 7]
- cell adhesion inhibitory activity (alanine scanning) [4]: equal to or greater than the cell adhesion inhibitory activity of the peptide set forth in SEQ ID NO: 2

Substance: Gly Leu Lys Pro Gly Val Asp Tyr Thr Ile Thr Val Ala Ala Val (GLKPGVDYTITVAAV; also: biotinylated (place not given here)) [SEQ ID NO: 8]
- cell adhesion inhibitory activity (alanine scanning) [4]: equal to or greater than the cell adhesion inhibitory activity of the peptide set forth in SEQ ID NO: 2

Substance: Gly Leu Lys Pro Gly Val Asp Tyr Thr Ile Thr Val Tyr Ala Ala (GLKPGVDYTITVYAA; also: biotinylated (place not given here)) [SEQ ID NO: 9]
- cell adhesion inhibitory activity (alanine scanning) [4]: equal to or greater than the cell adhesion inhibitory activity of the peptide set forth in SEQ ID NO: 2

Substance: Gly Leu Lys Pro Gly Val Asp Tyr Thr Ile Thr Val Tyr Ala Val (GLKPGVDYTITVYAV; also: biotinylated (place not given here)) [SEQ ID NO: 2]
- cell adhesion inhibitory effect ([4]; K562 cells in 0.1 mM Mn2+, fibronectin-coated plates, biotinylated peptide 50 to 200 μg/ml, 60 min, adherent cells counted): nearly equal to the activity of a known cell adhesion inhibitory peptide
- cell adhesion inhibitory activity (alanine scanning) [4]: cell adhesion inhibitory activity was noted
- cell adhesion inhibitory effect [5]: nearly equal to the activity of the known cell adhesion inhibitory peptide
- cell adhesion inhibitory effect [6]: nearly equal to the activity of the known cell adhesion inhibitory peptide
- cell adhesion inhibitory action (number of spread cells) [7]: exhibits no such action at all
- cell adhesion inhibitory action (number of spread cells) [8]: exhibits no such action at all

Substance: SEQ ID NO: 10: known peptide possessing cell adhesion inhibitory activity (Japanese Unexamined Patent Application Hei 10-147600); sequence not printed in the text (TEATIYGLEPGTEYTIYVIAL) [reference compound]
- cell adhesion inhibitory action (number of spread cells) [7]: had a cell adhesion inhibitory action; also recorded: possesses a cell spreading inhibitory action
- cell adhesion inhibitory action (number of spread cells) [8]: had a cell adhesion inhibitory action; also recorded: possesses a cell spreading inhibitory action
